molecular target: T1, human VDR (Homo sapiens, UniProt P11473); test: Evaluation of VDR transcription activity in human osteoblasts (HOS cells), luciferase reporter; conditions: Activity (EC50, VDR transcription activity), HOS cells transfected with human VDR, human RXRα and DR3 luciferase reporter; 21 hours
T1 sequence (P11473 1-427): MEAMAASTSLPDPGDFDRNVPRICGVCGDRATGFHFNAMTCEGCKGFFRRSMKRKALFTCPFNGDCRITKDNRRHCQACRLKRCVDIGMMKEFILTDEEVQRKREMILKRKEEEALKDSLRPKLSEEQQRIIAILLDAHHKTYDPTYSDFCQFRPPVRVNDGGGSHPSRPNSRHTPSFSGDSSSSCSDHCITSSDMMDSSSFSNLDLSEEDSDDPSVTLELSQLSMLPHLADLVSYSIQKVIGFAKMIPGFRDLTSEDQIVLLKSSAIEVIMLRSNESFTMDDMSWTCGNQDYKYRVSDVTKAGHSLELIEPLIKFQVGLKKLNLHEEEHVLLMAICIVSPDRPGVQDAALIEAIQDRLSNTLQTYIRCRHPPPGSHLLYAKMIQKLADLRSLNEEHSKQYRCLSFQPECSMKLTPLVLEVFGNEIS
T1 sequence (P19793 1-462 partner): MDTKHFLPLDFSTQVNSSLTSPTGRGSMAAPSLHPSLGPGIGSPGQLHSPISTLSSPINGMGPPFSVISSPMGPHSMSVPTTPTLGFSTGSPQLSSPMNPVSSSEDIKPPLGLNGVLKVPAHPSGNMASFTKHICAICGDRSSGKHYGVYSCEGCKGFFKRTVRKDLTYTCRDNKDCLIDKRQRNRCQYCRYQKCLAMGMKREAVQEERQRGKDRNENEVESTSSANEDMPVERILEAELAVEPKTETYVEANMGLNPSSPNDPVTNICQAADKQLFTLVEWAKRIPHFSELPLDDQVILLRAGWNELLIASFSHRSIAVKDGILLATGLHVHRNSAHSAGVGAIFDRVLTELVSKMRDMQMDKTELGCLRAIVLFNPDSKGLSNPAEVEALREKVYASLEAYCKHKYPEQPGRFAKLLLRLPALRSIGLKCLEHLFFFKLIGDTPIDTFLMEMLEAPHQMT

EC50, 1 to 10 nM:
C=C1[C@H](O)CC(=C/C=C2\CCC[C@]3(C)[C@@H]([C@H](C)CCN4CC[C@H](C(F)F)C4)CC[C@@H]23)C[C@H]1O [Compound B088, (1R,3R)-5-(2-((1R,3aS,7aR,E)-1-((R)-4-((S)-3-(difluoromethyl)pyrrolidin-1-yl)butan-2-yl)-7a-methyloctahydro-4H-inden-4-ylidene)ethylidene)-2-methylenecyclohexane-1,3-diol]
C=C1[C@H](O)CC(=C/C=C2\CCC[C@]3(C)[C@@H]([C@H](C)CCN4CC[C@H](CC(F)F)C4)CC[C@@H]23)C[C@H]1O [Compound B090, (1R,3R)-5-(2-((1R,3aS,7aR,E)-1-((R)-4-((R)-3-(2,2-difluoroethyl)pyrrolidin-1-yl)butan-2-yl)-7a-methyloctahydro-4H-inden-4-ylidene)ethylidene)-2-methylenecyclohexane-1,3-diol]
C=C1[C@H](O)CC(=C/C=C2\CCC[C@]3(C)[C@@H]([C@H](C)CCN4CC[C@H](C(C)(F)F)C4)CC[C@@H]23)C[C@H]1O [Compound B091, (1R,3R)-5-(2-((1R,3aS,7aR,E)-1-((R)-4-((S)-3-(1,1-difluoroethyl)pyrrolidin-1-yl)butan-2-yl)-7a-methyloctahydro-4H-inden-4-ylidene)ethylidene)-2-methylenecyclohexane-1,3-diol]
C=C1[C@H](O)CC(=C/C=C2\CCC[C@]3(C)[C@@H]([C@H](C)CCN4CC[C@@H](C(C)(F)F)C4)CC[C@@H]23)C[C@H]1O [Compound B093, (1R,3R)-5-(2-((1R,3aS,7aR,E)-1-((R)-4-((R)-3-(1,1-difluoroethyl)pyrrolidin-1-yl)butan-2-yl)-7a-methyloctahydro-4H-inden-4-ylidene)ethylidene)-2-methylenecyclohexane-1,3-diol]
C=C1/C(=C\C=C2/CCC[C@]3(C)[C@@H]([C@@H](C)CN4CC[C@@H](C(F)F)C4)CC[C@@H]23)C[C@@H](O)C[C@@H]1O [Compound B096, (1R,3S,Z)-5-(2-((1R,3aS,7aR,E)-1-((R)-1-((R)-3-(difluoromethyl)pyrrolidin-1-yl)propan-2-yl)-7a-methyloctahydro-4H-inden-4-ylidene)ethylidene)-4-methylenecyclohexane-1,3-diol]
C=C1/C(=C\C=C2/CCC[C@]3(C)[C@@H]([C@H](C)CN4CCC(O)(C(F)(F)F)CC4)CC[C@@H]23)C[C@@H](O)C[C@@H]1O [Compound C001, (1R,3S,Z)-5-(2-((1R,3aS,7aR,E)-1-((S)-1-(4-hydroxy-4-(trifluoromethyl)piperidin-1-yl)propan-2-yl)-7a-methyloctahydro-4H-inden-4-ylidene)ethylidene)-4-methylenecyclohexane-1,3-diol]
C=C1/C(=C\C=C2/CCC[C@]3(C)[C@@H]([C@@H](C)CN4CCC(C(F)(F)F)CC4)CC[C@@H]23)C[C@@H](O)C[C@@H]1O [Compound C011, (1R,3S,Z)-5-(2-((1R,3aS,7aR,E)-7a-methyl-1-((R)-1-(4-(trifluoromethyl)piperidin-1-yl)propan-2-yl)octahydro-4H-inden-4-ylidene)ethylidene)-4-methylenecyclohexane-1,3-diol]
C=C1/C(=C\C=C2/CCC[C@]3(C)[C@@H]([C@@H](C)CN4CCC(C(F)(F)F)CC4)CC[C@@H]23)C[C@@H](O)[C@H](C)[C@@H]1O [Compound C012, (1R,2S,3S,Z)-2-methyl-5-(2-((1R,3aS,7aR,E)-7a-methyl-1-((R)-1-(4-(trifluoromethyl)piperidin-1-yl)propan-2-yl)octahydro-4H-inden-4-ylidene)ethylidene)-4-methylenecyclohexane-1,3-diol]

EC50, 10 to 100 nM:
C[C@H](CCN1CC[C@H](C(C)(F)F)C1)[C@H]1CC[C@H]2/C(=C/C=C3C[C@@H](O)C[C@H](O)C3)CCC[C@]12C [Compound B083, (1R,3R)-5-(2-((1R,3aS,7aR,E)-1-((R)-4-((S)-3-(1,1-difluoroethyl)pyrrolidin-1-yl)butan-2-yl)-7a-methyloctahydro-4H-inden-4-ylidene)ethylidene)cyclohexane-1,3-diol]
C[C@H](CCCN1CC[C@H](C(F)F)C1)[C@H]1CC[C@H]2/C(=C/C=C3C[C@@H](O)C[C@H](O)C3)CCC[C@]12C [Compound B084, (1R,3R)-5-(2-((1R,3aS,7aR,E)-1-((R)-5-((S)-3-(difluoromethyl)pyrrolidin-1-yl)pentan-2-yl)-7a-methyloctahydro-4H-inden-4-ylidene)ethylidene)cyclohexane-1,3-diol]
C[C@H](CCCN1CC[C@@H](C(F)F)C1)[C@H]1CC[C@H]2/C(=C/C=C3C[C@@H](O)C[C@H](O)C3)CCC[C@]12C [Compound B085, (1R,3R)-5-(2-((1R,3aS,7aR,E)-1-((R)-5-((R)-3-(difluoromethyl)pyrrolidin-1-yl)pentan-2-yl)-7a-methyloctahydro-4H-inden-4-ylidene)ethylidene)cyclohexane-1,3-diol]
C=C1[C@H](O)CC(=C/C=C2\CCC[C@]3(C)[C@@H]([C@H](C)CCN4CC[C@@H](CC(F)F)C4)CC[C@@H]23)C[C@H]1O [Compound B092, (1R,3R)-5-(2-((1R,3aS,7aR,E)-1-((R)-4-((S)-3-(2,2-difluoroethyl)pyrrolidin-1-yl)butan-2-yl)-7a-methyloctahydro-4H-inden-4-ylidene)ethylidene)-2-methylenecyclohexane-1,3-diol]
C=C1[C@H](O)CC(=C/C=C2\CCC[C@]3(C)[C@@H]([C@H](C)CCN4CC[C@@H](CCC(F)F)C4)CC[C@@H]23)C[C@H]1O [Compound B094, (1R,3R)-5-(2-((1R,3aS,7aR,E)-1-((R)-4-((R)-3-(3,3-difluoropropyl)pyrrolidin-1-yl)butan-2-yl)-7a-methyloctahydro-4H-inden-4-ylidene)ethylidene)-2-methylenecyclohexane-1,3-diol]
C=C1/C(=C\C=C2/CCC[C@]3(C)[C@@H]([C@H](C)CN4CCC(O)(C(F)(F)F)CC4)CC[C@@H]23)C[C@@H](O)[C@H](C)[C@@H]1O [Compound C003, (1R,2S,3S,Z)-5-(2-((1R,3aS,7aR,E)-1-((S)-1-(4-hydroxy-4-(trifluoromethyl)piperidin-1-yl)propan-2-yl)-7a-methyloctahydro-4H-inden-4-ylidene)ethylidene)-2-methyl-4-methylenecyclohexane-1,3-diol]
C=C1[C@H](O)CC(=C/C=C2\CCC[C@]3(C)[C@@H]([C@H](C)CN4CCC(O)(C(F)(F)F)CC4)CC[C@@H]23)C[C@H]1O [Compound C004, (1R,3R)-5-(2-((1R,3aS,7aR,E)-1-((S)-1-(4-hydroxy-4-(trifluoromethyl)piperidin-1-yl)propan-2-yl)-7a-methyloctahydro-4H-inden-4-ylidene)ethylidene)-2-methylenecyclohexane-1,3-diol]
C=C1[C@H](O)CC(=C/C=C2\CCC[C@]3(C)[C@@H]([C@H](C)CN4CCC(C(F)(F)F)CC4)CC[C@@H]23)C[C@H]1O [Compound C009, (1R,3R)-5-(2-((1R,3aS,7aR,E)-7a-methyl-1-((S)-1-(4-(trifluoromethyl)piperidin-1-yl)propan-2-yl)octahydro-4H-inden-4-ylidene)ethylidene)-2-methylenecyclohexane-1,3-diol]
C=C1/C(=C\C=C2/CCC[C@]3(C)[C@@H]([C@H](C)CN4CCC(C(F)(F)F)CC4)CC[C@@H]23)C[C@@H](O)[C@H](C)[C@@H]1O [Compound C010, (1R,2S,3S,Z)-2-methyl-5-(2-((1R,3aS,7aR,E)-7a-methyl-1-((S)-1-(4-(trifluoromethyl)piperidin-1-yl)propan-2-yl)octahydro-4H-inden-4-ylidene)ethylidene)-4-methylenecyclohexane-1,3-diol]
C=C1[C@H](O)CC(=C/C=C2\CCC[C@]3(C)[C@@H]([C@H](C)CN4CCC(C(F)F)CC4)CC[C@@H]23)C[C@H]1O [Compound C015]

EC50, 100 to 1000 nM:
C[C@H](CCN1CC[C@@H](OC(F)F)C1)[C@H]1CC[C@H]2/C(=C/C=C3C[C@@H](O)C[C@H](O)C3)CCC[C@]12C [Compound B087, (1R,3R)-5-(2-((1R,3aS,7aR,E)-1-((R)-4-((R)-3-(difluoromethoxy)pyrrolidin-1-yl)butan-2-yl)-7a-methyloctahydro-4H-inden-4-ylidene)ethylidene)cyclohexane-1,3-diol]
C=C1/C(=C\C=C2/CCC[C@]3(C)[C@@H]([C@@H](C)CN4CC[C@H](C(F)F)C4)CC[C@@H]23)C[C@@H](O)C[C@@H]1O [Compound B095, (1R,3S,Z)-5-(2-((1R,3aS,7aR,E)-1-((R)-1-((S)-3-(difluoromethyl)pyrrolidin-1-yl)propan-2-yl)-7a-methyloctahydro-4H-inden-4-ylidene)ethylidene)-4-methylenecyclohexane-1,3-diol]

Reference: patent publication US20230348376A1 (TEIJIN PHARMA LIMITED, priority 2020, published 2023)
